Laboratory results from a melting point compilation (Tetko et al.).

| Structure (SMILES) | melting point |
| --- | --- |
| Nc1ccc(Cl)cc1C(=O)NC1CC1 | 147 to 149 °C |
| Cc1cccn2cc(-c3ccc(N)cc3)nc12 | 161 to 163 °C |
| Nc1ncnc2c1ncn2CCCCl | 339 to 341 °C |
| CC(C)(C)OC(=O)NC(Cc1ccccc1)C(O)C(F)(F)F (stereo unspecified) | 149 to 151 °C |
| CC(C)(C)OC(=O)N1CCN(c2nnc(N)[nH]2)CC1 | 178 to 180 °C |
| CCOc1cc(C=O)cc(Cl)c1O | 145 to 147 °C |
| NCC(O)c1ccco1 (stereo unspecified) | 80 to 82 °C |
| NN1C(=O)NC2(CCCCC2)C1=O | 164 to 166 °C |
| O=C(O)Cn1c(-c2ccccc2Cl)nc2ccccc21 | 276 to 278 °C |
| FC(F)(F)CNC(=S)N1CCOCC1 | 103 to 105 °C |
| COc1cc(C(=O)O)ccc1OCc1ccc(Br)s1 | 179 to 181 °C |
| CC(C)(C)C1CCc2sc(-c3nnc(CCl)o3)cc2C1 (stereo unspecified) | 89 to 91 °C |
| CS(=O)c1ccccc1N (stereo unspecified) | 156 to 158 °C |
| CC(C)CNC(=O)c1cc(Cl)ccc1N | 137 to 139 °C |
| Cc1ccc(C(=O)N2CCOCC2)cc1N | 153 to 155 °C |
| O=C(O)c1ccc2c(c1)C(=O)N(CC1CCCO1)C2=O (stereo unspecified) | 153 to 155 °C |
| Cc1ccc2c(Cl)c(C(=O)O)sc2c1 | 271 to 273 °C |
| O=C(CCCl)NCC(=O)c1ccccc1 | 120 to 122 °C |
| O=[N+]([O-])c1cnc2c(c1)CCCC2 | 71 to 73 °C |
| Cc1[nH]n(-c2ccc(C#N)cc2)c(=N)c1C | 180 to 182 °C |
| CC(Oc1ccc(-c2nc3ccccc3s2)cc1)C(=O)O (stereo unspecified) | 217 to 219 °C |
| CC(=O)Nc1cc(F)c(F)cc1N | 162 to 164 °C |
| NC(=O)c1ccsc1NC(=O)CCC(=O)O | 243 to 245 °C |

| Structure (SMILES) | melting point |
| --- | --- |
| Nc1ccc(F)c(NC(=O)c2ccccc2I)c1 | 147 to 149 °C |
| CC1CCC(=CC(=O)O)CC1 (stereo unspecified) | 61 to 63 °C |
| CCOc1ccc(C(=O)N2CCCCC2)cc1N | 143 to 145 °C |
| Cc1cc(C2CCCNC2)n[nH]1 (stereo unspecified) | 104 to 106 °C |
| O=C(O)c1cccn1Cc1cccnc1 | 172 to 174 °C |
| N=c1sccn1CC(=O)O | 243 to 247 °C |
| O=S(=O)(c1cccc2cnccc12)N1CCCNCC1 | 146 to 148 °C |
| COC(=O)c1sc(-c2cccc(Cl)c2)cc1N | 100 to 102 °C |
| COc1cc(NC(=O)OC(C)(C)C)c(Cl)cc1C(=O)O | 155 to 157 °C |
| N#CCCNc1cccc(Cl)c1 | 141 to 143 °C |
| Nc1nc(Cl)ncc1[N+](=O)[O-] | 209 to 211 °C |
| COc1cccc(C(=O)CC#N)c1 | 84 to 86 °C |
| COc1ccc(NC(=O)CC(C)=O)c(OC)c1 | 96 to 98 °C |
| Cn1c(C=O)nc2cc(C(F)(F)F)ccc21 | 111 to 113 °C |
| C#CCOc1ccccc1O | 48 to 50 °C |
| Cn1nnnc1Sc1ccc(Br)cc1N | 148 to 150 °C |
| O=C(O)c1ccc(N2CCCS2(=O)=O)cc1Cl | 226 to 228 °C |
| N#Cc1cc(N)c(Cl)c([N+](=O)[O-])c1 | 205 to 207 °C |
| Fc1ccc(OCC2CNCCO2)cc1F (stereo unspecified) | 49 to 51 °C |
| CC(C)Cn1ncc(C(=O)O)c1C(F)F | 99 to 101 °C |
| O=C(CCl)NCC1Cc2ccccc2O1 (stereo unspecified) | 94 to 96 °C |
| O=C1CC2CCCC(C1)N2Cc1cccs1 | 88 to 90 °C |
| Cc1nn(C)c(Cl)c1C#N | 55 to 57 °C |

| Structure (SMILES) | melting point |
| --- | --- |
| Nc1ccc(F)c(NC(=O)C2CC2)c1 | 121 to 123 °C |
| Sc1nnc(CCCc2ccccc2)o1 | 53 to 55 °C |
| O=C(O)c1c[nH]c2nccc(Cl)c12 | 189 to 191 °C |
| CC(Cl)C(=O)NC(C)c1ccc2c(c1)OCCO2 (stereo unspecified) | 110 to 112 °C |
| ON=Cc1ccncn1 | 150 to 152 °C |
| ClCc1ncc(-c2ccccc2Br)o1 | 85 to 87 °C |
| O=C(NCCO)c1ccncc1 | 136 to 138 °C |
| N#C/C(=C/c1c[nH]nc1-c1cccc(Br)c1)C(=O)O | 258 to 260 °C |
| O=C(CCl)Nc1ccccc1OC(F)F | 92 to 94 °C |
| Nc1ccc(Oc2ccc(Cl)nn2)cc1 | 105 to 107 °C |
| CCOc1ccc(N)c(C(N)=O)c1 | 148 to 150 °C |
| O=C(Nc1ccccc1)NC1CCNCC1 | 169 to 171 °C |
| N#CCc1c[nH]c2cc(Br)ccc12 | 112 to 114 °C |
| CS(=O)(=O)NCCN=C=S | 163 to 165 °C |
| Cc1cccc2nc(CSc3ccccc3C(=O)O)cc(=O)n12 | 211 to 213 °C |
| CC(=O)c1ccc(C(F)(F)C(=O)O)n1C | 115 to 117 °C |
| N#CC1=C(Cl)CCCC1 | 38 to 40 °C |
| Nc1ccc(Br)c(I)c1 | 74 to 76 °C |
| CC(=O)c1cc(Cl)cc(CN2CCN(C(C)=O)CC2)c1O | 136 to 138 °C |
| Cc1nc(CC(C)C)sc1C(=O)O | 169 to 171 °C |
| O=C(O)C1CC(=O)N(Cc2ccccc2)C1 (stereo unspecified) | 140 to 144 °C |
| O=C(O)C1CC(=O)N(c2nccs2)C1 (stereo unspecified) | 184 to 186 °C |
| OCC1CN(Cc2ccccc2)CC1CO (stereo unspecified) | 94 to 96 °C |

| Structure (SMILES) | melting point |
| --- | --- |
| COc1ccc(N)cc1NC(=O)C1CCCCC1 | 147 to 149 °C |
| CCOC(=O)Cc1csc(NC(=O)OCC(F)(F)F)n1 | 120 to 122 °C |
| Cc1ncsc1C(=O)Cl | 62 to 64 °C |
| O=C(CCl)NC1C2CC3CC(C2)CC1C3 (stereo unspecified) | 118 to 122 °C |
| CCn1cc(N)c(=O)c(Br)c1 | 116 to 118 °C |
| COc1ccc2[nH]c3c(c2c1)CC1(CC3)OCCO1 | 149 to 151 °C |
| Cc1ccccc1-n1c(Cl)nc2ccccc2c1=O | 298 to 300 °C |
| Cc1ccccc1OCCCC(=O)Nc1ccc(CN)cc1 | 82 to 84 °C |
| NS(=O)(=O)C1CCCNC1 (stereo unspecified) | 119 to 121 °C |
| O=C(O)Cn1cc(Br)c(=O)[nH]c1=O | 266 to 268 °C |
| COc1c(C)cnc(Cn2ccc(N)n2)c1C | 59 to 61 °C |
| CC1(C)NC(=O)N(Cc2ccc(Cl)nc2)C1=O | 127 to 129 °C |
| CN1CCN(c2ccc(N)cc2Cl)CC1 | 127 to 129 °C |
| N#CC1CSCCS1 (stereo unspecified) | 76 to 78 °C |
| Clc1nc(CN2CCCCC2)nc2sc3c(c12)CCCC3 | 51 to 53 °C |
| O=C(c1ccc(Cl)c(Cl)c1)N1CCNCC1 | 74 to 76 °C |
| CN(CCO)CCC(=O)O | 89 to 91 °C |
| Cn1cnc([N+](=O)[O-])c1S(=O)(=O)Cl | 100 to 102 °C |
| Cc1cc(C(=O)Cl)sc1C | 59 to 61 °C |
| COc1ccccc1C(=O)NC(=O)CCl | 118 to 120 °C |
| Oc1ccc(Br)cc1-c1nn[nH]n1 | 188 to 190 °C |
| Cc1cc([N+](=O)[O-])cc(S(=O)(=O)Cl)c1F | 73 to 75 °C |

The remaining lines, values ahead:

| melting point | Structure (SMILES) |
| --- | --- |
| 169 to 171 °C | O=C(O)c1ccc(Oc2cc(Cl)ccc2Cl)cc1 |
| 120 to 122 °C | Nc1ccc(C(O)c2ccccc2)cc1[N+](=O)[O-] (stereo unspecified) |
| 122 to 124 °C | COC(=O)Nc1ccc(Br)cc1 |
| 163 to 165 °C | O=C(O)c1ccc(CN2C(=O)C=CC2=O)cc1 |
| 171 to 173 °C | Cc1cc(C(=O)O)cc(S(=O)(=O)Cl)c1C |
| 235 to 239 °C | Cc1cccc(C(=O)NC(CCS(C)(=O)=O)C(=O)O)c1 (stereo unspecified) |
| 204 to 206 °C | O=C(O)CN1C(=O)c2ccc(Br)cc2C1=O |
| 92 to 94 °C | CC(=O)NCCOc1ccc(N)cc1 |
| 122 to 124 °C | CC(=CC(=O)O)c1ccc(C(F)(F)F)cc1 |
| 176 to 178 °C | Cc1ccc(C(=O)O)cc1S(=O)(=O)N1CCOCC1 |
| 175 to 177 °C | CCN(c1ccccc1)S(=O)(=O)c1cccc(C(=O)O)c1 |
| 59 to 61 °C | CC(C)C(C(=O)O)c1ccc(F)cc1 (stereo unspecified) |
| 220 to 222 °C | O=C(O)CN1C(=O)Cc2ccccc21 |
| 152 to 154 °C | CSc1ccc(C(=O)CCC(=O)O)cc1 |
| 38 to 42 °C | CCN(Cc1ccccc1)c1ccc(C=O)cc1 |
| 92 to 94 °C | CCS(=O)(=O)CCOc1ccc(S(=O)(=O)Cl)cc1 |
| 65 to 67 °C | COc1cc(S(=O)(=O)Cl)ccc1Br |
| 128 to 131 °C | O=C(O)CC(Br)C(=O)c1ccc(F)cc1 (stereo unspecified) |
| 304 to 306 °C | O=C(O)c1cc(O)nc2ccc(S(=O)(=O)N3CCOCC3)cc12 |
| 166 to 168 °C | O=C(O)CNC(=O)NCc1ccc([N+](=O)[O-])cc1 |
| 172 to 174 °C | O=S(=O)(Nc1nc2ccccc2nc1Cl)c1ccccc1 |
| 129 to 131 °C | CN(C)C(=O)COc1ccc(N)cc1 |
| 229 to 231 °C | Cc1oncc1C(=O)Nc1ccc(C(=O)O)cc1 |
| 184 to 186 °C | CC(C)Sc1ccc([N+](=O)[O-])cc1C(=O)O |
| 140 to 142 °C | Cc1ccc2c(CC(=O)O)coc2c1 |

| melting point | Structure (SMILES) |
| --- | --- |
| 274 to 276 °C | NS(=O)(=O)c1ccc(/C=C/C(=O)O)cc1 |
| 277 to 279 °C | O=C(O)c1cccc(N2CCCNC2=O)c1 |
| 161 to 163 °C | N#Cc1ccc(S(=O)(=O)N2CCC(O)CC2)cc1 |
| 295 to 297 °C | COc1ccc(/C=C/c2cc(C(=O)O)c3cc(Br)ccc3n2)cc1 |
| 107 to 109 °C | O=C(O)Cc1cnn(-c2ccccc2)c1 |
| 56 to 58 °C | Cc1cccc(S(=O)(=O)Cl)c1Br |
| 136 to 138 °C | Cc1ccc(S(=O)(=O)OC2C=CS(=O)(=O)C2)cc1 (stereo unspecified) |
| 177 to 179 °C | ON=Cc1ccc(Oc2ncccn2)cc1 |
| 343 to 345 °C | O=C(O)c1ccc2c(=O)n(-c3ccccc3F)c(=O)[nH]c2c1 |
| 251 to 253 °C | Cc1ccc(-c2cc(C(=O)O)[nH]n2)cc1 |
| 225 to 227 °C | Cc1oc(C(=O)O)cc1S(N)(=O)=O |
| 141 to 143 °C | O=C(O)CSc1ccc(O)cc1 |
| 139 to 141 °C | COC(=O)c1ccccc1CC(=O)O |
| 63 to 65 °C | CCOc1ccc(C(=O)CCl)cc1 |
| 225 to 227 °C | O=C(O)Cn1cc([N+](=O)[O-])ccc1=O |
| 181 to 183 °C | O=C(O)CCn1cnc2ccccc2c1=O |
| 207 to 209 °C | NS(=O)(=O)c1cc(F)cc(C(=O)O)c1Br |
| 89 to 91 °C | O=C(O)CC(=O)c1ccc(O)cc1 |
| 180 to 182 °C | Cc1c(NC(=O)CSCC(=O)O)c(=O)n(-c2ccccc2)n1C |
| 116 to 118 °C | O=S(=O)(Nc1cccc(Br)c1)c1ccccc1 |
| 243 to 245 °C | CC(C)(C)Nc1ccc(C(=O)O)cc1S(=O)(=O)NC(C)(C)C |
| 130 to 132 °C | O=S(=O)(c1ccc(O)cc1)N1CCCCC1 |
| 159 to 161 °C | CCCCc1ccc(NS(=O)(=O)c2ccc(N)cc2)cc1 |
| 215 to 217 °C | O=C(O)c1ccc2c(c1)C(=O)N(CCc1ccccc1)C2=O |
| 39 to 43 °C | CCC(=O)c1ccc(OC(F)F)cc1 |
